The assay concerns pro-fibrotic gene expression (COL1A1) in LX-2 cells. The experiment in a line: qRT-PCR of pro-fibrotic gene expression in LX-2 cells. The conditions noted are these: 500 nM, 16 hr, equimolar doses, absence or presence of TGFβ1 (5 ng/ml), compared with JQ1.

`COc1ccccc1S(=O)(=O)Nc1ccc2c(c1)CN(C)C(=O)N2` [PFI-1]: the “inhibitory effects on the expression of a wide range of pro-fibrotic genes” value is “comparable inhibitory effects to JQ1”.
To `COc1cc2c(cc1-c1c(C)noc1C)ncc1[nH]c(=O)n([C@H](C)c3ccccn3)c12` [I-BET-151] belongs “comparable inhibitory effects to JQ1”.
